Like-named read-outs stand apart in the source and are kept apart here.
Tests used:
[1] = molecular target: T1, α-glucosidase enzyme (EC3.2.1.20) (Saccharomyces cerevisiae, UniProt P38158); assay: biochemical; assay type: biochemical
T1 construct: purchased Sigma-Aldrich
Procedure: α-glucosidase enzyme (EC3.2.1.20, Saccharomyces cerevisiae, 20 U/mg) and substrate (p-nitrophenyl glucopyranoside) were purchased from Sigma-Aldrich. α-glucosidase was dissolved in potassium phosphate buffer (50 mM, pH = 6.8) to obtain the initial activity of 1 U/ml. Then, 20 µl of this enzyme solution was added to 135 µl of potassium phosphate buffer and 20 µl of test compound at various concentrations in DMSO. After 10 min incubation at 37 °C, 25 µl of the substrate at a final concentration of 4 mM was added to the mixture and allowed to incubate at 37 °C for 20 min. Then, the change in absorbance was measured at 405 nm spectroscopically. […] The percentage of inhibition for each entry was calculated by using the following formula: \%Inhibition=Abs control-Abs sample/Abs control×100 IC50 values were obtained from the nonlinear regression curve using the Logit method[15],[29].

α-glucosidase [2] = conditions: cited from earlier work
α-glucosidase [3] = molecular target: T2, α-glucosidase (Saccharomyces cerevisiae, UniProt P38158); assay: Enzyme kinetic studies (Lineweaver–Burk plot, secondary plot); assay type: biochemical
T2 construct: purchased Sigma-Aldrich
Procedure: A Lineweaver–Burk plot was generated to identify the type of inhibition and the Michaelis–Menten constant (Km) value was determined from the plot between the reciprocal of the substrate concentration (1/[S]) and reciprocal of enzyme rate (1/V) over various inhibitor concentrations.

[4] = set-up: method as in PMID 29980114; conditions: at the tested concentrations; cited from earlier work
[5] = previously reported aryl-hydrazide inhibitors, Fig. 1, read-out: IC50
[6] = previously reported inhibitors, Fig. 1, recent research

T1 sequence (P38158 whole entry): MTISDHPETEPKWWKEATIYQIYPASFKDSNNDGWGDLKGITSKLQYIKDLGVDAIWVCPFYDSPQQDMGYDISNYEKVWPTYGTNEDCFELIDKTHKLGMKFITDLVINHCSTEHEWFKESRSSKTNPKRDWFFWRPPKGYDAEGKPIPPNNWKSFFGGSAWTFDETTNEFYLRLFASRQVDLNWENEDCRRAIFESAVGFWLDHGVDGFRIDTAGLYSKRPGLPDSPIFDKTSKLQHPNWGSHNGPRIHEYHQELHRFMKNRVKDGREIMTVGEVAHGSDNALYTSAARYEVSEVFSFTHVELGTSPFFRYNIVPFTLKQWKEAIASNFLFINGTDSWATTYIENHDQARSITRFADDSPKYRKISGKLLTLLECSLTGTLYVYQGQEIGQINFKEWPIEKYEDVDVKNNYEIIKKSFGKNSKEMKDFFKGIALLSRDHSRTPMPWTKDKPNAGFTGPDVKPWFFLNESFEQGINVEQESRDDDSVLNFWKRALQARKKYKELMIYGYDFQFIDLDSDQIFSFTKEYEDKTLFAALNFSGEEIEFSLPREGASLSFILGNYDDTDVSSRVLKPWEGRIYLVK
T2 sequence (P38158 whole entry): as above

O=C(CSc1nc2ccccc2cc1C=NNC(=O)c1ccccc1)Nc1ccc([N+](=O)[O-])cc1 [Compound 9g, 2-((3-((2-benzoylhydrazineylidene)methyl)quinolin-2-yl)thio)-N-(4-nitrophenyl)acetamide]
IC50 [1]: 93.7 ± 1.5 µM
melting point: 241 to 243 °C

O=C(CSc1nc2ccccc2cc1C=NNC(=O)c1ccccc1)Nc1ccc2ccccc2c1 [Compound 9n, 2-((3-((2-Benzoylhydrazineylidene)methyl)quinolin-2-yl)thio)-N-(naphthalen-2-yl)acetamide]
IC50 [1]: 18.4 ± 0.4 µM
melting point: 263 to 265 °C

O=C(CSc1nc2ccccc2cc1C=NNC(=O)c1ccccc1)Nc1ccccc1 [Compound 9a, 2-((3-((2-Benzoylhydrazineylidene)methyl)quinolin-2-yl)thio)-N-phenylacetamide]
IC50 [1]: 88.5 ± 1.3 µM
improvement in inhibitory potency compared to the positive control ([1]; versus acarbose): approximately nine-fold
melting point: 245 to 247 °C

Cc1cccc(NC(=O)CSc2nc3ccccc3cc2C=NNC(=O)c2ccccc2)c1C [Compound 9l, 2-((3-((2-Benzoylhydrazineylidene)methyl)quinolin-2-yl)thio)-N-(2,3-dimethylphenyl)acetamide]
IC50 [1]: 37.99 ± 0.2 µM
melting point: 241 to 243 °C

O=C(CSc1nc2ccccc2cc1C=NNC(=O)c1ccccc1)Nc1ccc(Br)cc1 [Compound 9f, 2-((3-((2-Benzoylhydrazineylidene)methyl)quinolin-2-yl)thio)-N-(4-bromophenyl)acetamide]
IC50 [1]: 352.4 ± 1.1 µM
melting point: 254 to 257 °C

O=C(N/N=C/c1cccc(F)c1)c1ccc2nc(-c3ccccc3)c(-c3ccccc3)nc2c1 [F]
IC50 (α-glucosidase [2]; [5]): 111 ± 6 µM

O=C(O)c1ccc2ccccc2n1 [A]
IC50 (α-glucosidase [2]; [6]): 9.1 ± 2.3 µg/mL

O=C(CSc1nc2ccccc2cc1C=NNC(=O)c1ccccc1)Nc1ccccc1F [Compound 9b, 2-((3-((2-Benzoylhydrazineylidene)methyl)quinolin-2-yl)thio)-N-(2-fluorophenyl)acetamide]
IC50 [1]: 109.4 ± 0.2 µM
melting point: 268 to 270 °C

CCc1ccc(NC(=O)CSc2nc3ccccc3cc2C=NNC(=O)c2ccccc2)cc1 [Compound 9k, 2-((3-((2-Benzoylhydrazineylidene)methyl)quinolin-2-yl)thio)-N-(4-ethylphenyl)acetamide]
IC50 [1]: 60.4 ± 0.2 µM
melting point: 255 to 257 °C

COc1ccc(NC(=O)CSc2nc3ccccc3cc2C=NNC(=O)c2ccccc2)cc1 [Compound 9j, 2-((3-((2-Benzoylhydrazineylidene)methyl)quinolin-2-yl)thio)-N-(4-methoxyphenyl)acetamide]
IC50 [1]: 24.7 ± 0.3 µM
melting point: 241 to 243 °C

Cc1ccc(NC(=O)CSc2nc3ccccc3cc2C=NNC(=O)c2ccccc2)cc1 [Compound 9i, 2-((3-((2-Benzoylhydrazineylidene)methyl)quinolin-2-yl)thio)-N-(p-tolyl)acetamide]
IC50 [1]: 305 ± 1.1 µM
melting point: 254 to 256 °C

O=C(CSc1nc2ccccc2cc1C=NNC(=O)c1ccccc1)Nc1ccc(F)cc1 [Compound 9c, 2-((3-((2-Benzoylhydrazineylidene)methyl)quinolin-2-yl)thio)-N-(4-fluorophenyl)acetamide]
IC50 [1]: 46 ± 0.5 µM
melting point: 271 to 273 °C

O=C(CSc1nc2ccccc2cc1C=NNC(=O)c1ccccc1)NCc1ccccc1 [Compound 9o, 2-((3-((2-Benzoylhydrazineylidene)methyl)quinolin-2-yl)thio)-N-benzylacetamide]
IC50 [1]: 373.8 ± 0.8 µM
melting point: 241 to 243 °C

O=C(CSc1nc2ccccc2cc1C=NNC(=O)c1ccccc1)Nc1cccc(Cl)c1 [Compound 9d, 2-((3-((2-Benzoylhydrazineylidene)methyl)quinolin-2-yl)thio)-N-(3-chlorophenyl)acetamide]
IC50 [1]: 193.8 ± 1 µM
melting point: 255 to 257 °C

Cc1ccccc1NC(=O)CSc1nc2ccccc2cc1C=NNC(=O)c1ccccc1 [Compound 9h, 2-((3-((2-Benzoylhydrazineylidene)methyl)quinolin-2-yl)thio)-N-(o-tolyl)acetamide]
IC50 [1]: 141.8 ± 0.6 µM
melting point: 260 to 263 °C

Cc1cccc(C)c1NC(=O)CSc1nc2ccccc2cc1/C=N/NC(=O)c1ccccc1 [Compound 9m, 2-((3-((2-Benzoylhydrazineylidene)methyl)quinolin-2-yl)thio)N(2,6dimethylphenyl)acetamide]
IC50 ([1]; α-glucosidase inhibition, mean ± SD, read-out: IC50): 14 ± 0.6 µM
mode of inhibition (α-glucosidase [3]; Lineweaver–Burk plot, Km increased, Vmax unchanged): competitive
Ki (α-glucosidase [3]; from plot of Km versus inhibitor concentration, read-out: Ki (inhibition constant)): 18 µM

O=C(CSc1nc2ccccc2cc1-c1nc2ccccc2[nH]1)Nc1cccc(Cl)c1 [C]
IC50 (α-glucosidase [2]; previously reported inhibitor, Fig. 1, read-out: IC50): 3.2 ± 0.3 µM

O=C(N/N=C/c1ccc(Cl)cc1)c1ccc(-c2nc3ccccc3s2)cc1 [E]
IC50 (α-glucosidase [2]; [5]): 83.8 ± 0.89 µM

O=C(O)c1cnc2ccccc2c1 [B]
IC50 (α-glucosidase [2]; [6]): 10.6 ± 1.4 µg/mL

O=C(CSc1nc2ccccc2cc1C=NNC(=O)c1ccccc1)NCc1ccc(F)cc1 [Compound 9p, 2-((3-((2-Benzoylhydrazineylidene)methyl)quinolin-2-yl)thio)-N-(4-fluorobenzyl)acetamide]
IC50 [1]: 78 ± 2.4 µM
melting point: 269 to 271 °C

COc1ccc2nc3cc(Cl)ccc3c(SCC(=O)Nc3ccc(C)cc3)c2c1 [D]
IC50 (α-glucosidase [2]; previously reported inhibitor and its positive control, read-out: IC50): 80 ± 2 µM
toxicity [4]: no toxicity

O=C(CSc1nc2ccccc2cc1C=NNC(=O)c1ccccc1)Nc1ccc(Cl)cc1 [Compound 9e, 2-((3-((2-Benzoylhydrazineylidene)methyl)quinolin-2-yl)thio)-N-(4-chlorophenyl)acetamide]
IC50 [1]: 234.9 ± 0.9 µM
melting point: 262 to 264 °C

— article PMC10185516, “Synthesis, in vitro inhibitor screening, structure–activity relationship, and molecular dynamic simulation studies of novel thioquinoline derivatives as potent α-glucosidase inhibitors” (Scientific Reports, 2023)
